# Reference: ChEMBL document CHEMBL1201862, “PubChem BioAssay data set” (2004)
#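 Results reflect a 48-hour exposure of cells in 96-well plates to compound at five concentrations. Abbreviation: GI50, concentration required for 50% inhibition of growth.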 Activity calls are given as the source filed them. Rule as the data show it: active = GI50 up to about 1.1 µM and inactive = higher.
# Tests used:
# Assay in all cases: NCI anticancer screen, dose series, 48 h
# [1] = test system: HOP-62
# [2] = test system: M14
# [3] = test system: U-251
# [4] = test system: TK-10
# [5] = test system: RXF 393
# [6] = test system: UACC-257
# [7] = test system: A498
# [8] = test system: SN12C
# [9] = test system: CAKI-1
# [10] = test system: UACC-62
# [11] = test system: OVCAR-4
# [12] = test system: SK-MEL-2
# [13] = test system: SK-MEL-5
# [14] = test system: CCRF-CEM
# [15] = test system: NCI-H522
# [16] = test system: LOX IMVI
# [17] = test system: HCC 2998
# [18] = test system: SR
SMILES,GI50 [1],GI50 [2],GI50 [3],GI50 [4],GI50 [5],GI50 [6],GI50 [7],GI50 [8],GI50 [9],GI50 [10],GI50 [11],GI50 [12],GI50 [13],GI50 [14],GI50 [15],GI50 [16],GI50 [17],GI50 [18]
COC(=O)C(=O)C(C(=O)C=C(C)C)C(=O)C(=O)Nc1cc(C(F)(F)F)ccc1Cl (stereo not given),> 100 µM (inactive),> 100 µM (inactive),> 100 µM (inactive),> 100 µM (inactive),> 100 µM (inactive),70.3 µM (inactive),> 100 µM (inactive),> 100 µM (inactive),> 100 µM (inactive),> 100 µM (inactive),> 100 µM (inactive),> 100 µM (inactive),> 100 µM (inactive),21.3 µM (inactive),57.5 µM (inactive),46.9 µM (inactive),> 100 µM (inactive),17.7 µM (inactive)
COc1c(C)cc(O)cc1C=O,> 100 µM (inactive),> 100 µM (inactive),> 100 µM (inactive),> 100 µM (inactive),> 100 µM (inactive),> 100 µM (inactive),,> 100 µM (inactive),> 100 µM (inactive),> 100 µM (inactive),> 100 µM (inactive),> 100 µM (inactive),> 100 µM (inactive),> 100 µM (inactive),> 100 µM (inactive),> 100 µM (inactive),> 100 µM (inactive),
O=C(c1ccccc1)N1CCN2CCN=C(c3ccccc3)C21c1ccccc1 (stereo not given),> 100 µM (inactive),61.2 µM (inactive),> 100 µM (inactive),> 100 µM (inactive),45.5 µM (inactive),25.8 µM (inactive),> 100 µM (inactive),,,18.1 µM (inactive),29.4 µM (inactive),> 100 µM (inactive),> 100 µM (inactive),61.9 µM (inactive),,> 100 µM (inactive),> 100 µM (inactive),
Cc1cc(N(CCC#N)CCC#N)ccc1/N=N/c1ccc(Br)cc1,6.41 µM (inactive),9.02 µM (inactive),19.5 µM (inactive),14.3 µM (inactive),8.13 µM (inactive),> 100 µM (inactive),13.7 µM (inactive),> 36.8 µM (inactive),16.4 µM (inactive),9.31 µM (inactive),> 100 µM (inactive),15.1 µM (inactive),12.3 µM (inactive),> 31.6 µM (inactive),16.6 µM (inactive),> 21.7 µM (inactive),> 27 µM (inactive),
C=CC1C(OC2OC(CO)C(O)C(O)C2O)OC=C(C(=O)OC)C1CC=O (stereo not given),> 100 µM (inactive),> 100 µM (inactive),> 100 µM (inactive),,> 100 µM (inactive),,> 100 µM (inactive),> 100 µM (inactive),,> 100 µM (inactive),> 100 µM (inactive),> 100 µM (inactive),> 100 µM (inactive),,,> 100 µM (inactive),,> 100 µM (inactive)
COC1=C2C[C@H](O)C(C)C[C@@]2(OC)OC1=O (stereo not given in full),> 100 µM (inactive),> 100 µM (inactive),> 100 µM (inactive),,> 100 µM (inactive),> 100 µM (inactive),> 100 µM (inactive),> 100 µM (inactive),> 100 µM (inactive),> 100 µM (inactive),> 100 µM (inactive),> 100 µM (inactive),> 100 µM (inactive),> 100 µM (inactive),> 100 µM (inactive),> 100 µM (inactive),> 100 µM (inactive),
O=C1c2c(O)cccc2C(C(=O)CCCCCC(=O)C2c3cccc(O)c3C(=O)c3c(O)cccc32)c2cccc(O)c21,2.88 µM (inactive),2.45 µM (inactive),0.766 µM (active),3.82 µM (inactive),,0.755 µM (active),4.04 µM (inactive),1.04 µM (active),4.5 µM (inactive),1.12 µM (active),1.5 µM (inactive),1.03 µM (active),0.555 µM (active),1.36 µM (inactive),0.638 µM (active),0.906 µM (active),2.27 µM (inactive),1.79 µM (inactive)
CC(=O)NC1=C(NCCN(C)C)C(=O)c2ccccc2C1=O,14.5 µM (inactive),18.4 µM (inactive),10.3 µM (inactive),27.8 µM (inactive),25.4 µM (inactive),9.25 µM (inactive),,10.4 µM (inactive),,10.5 µM (inactive),8.93 µM (inactive),15.3 µM (inactive),7.21 µM (inactive),15.4 µM (inactive),10.3 µM (inactive),12.6 µM (inactive),14.9 µM (inactive),41.3 µM (inactive)
CN(C)c1ccc(/C=C2\CCc3ccccc3C2=O)cc1Br,> 100 µM (inactive),53.6 µM (inactive),71.8 µM (inactive),> 100 µM (inactive),75.5 µM (inactive),43.6 µM (inactive),,> 100 µM (inactive),36.4 µM (inactive),40.2 µM (inactive),83.9 µM (inactive),48.5 µM (inactive),25.8 µM (inactive),36 µM (inactive),23.2 µM (inactive),32.7 µM (inactive),> 100 µM (inactive),29.2 µM (inactive)
COc1cc([C@H]2c3cc4c(cc3[C@H](NCc3ccc(F)cc3)C3COC(=O)[C@H]32)OCO4)cc(OC)c1O (stereo not given in full),1.23 µM (inactive),3.19 µM (inactive),1.09 µM (active),15.4 µM (inactive),8.04 µM (inactive),14.8 µM (inactive),2.19 µM (inactive),1.96 µM (inactive),,1.56 µM (inactive),37.6 µM (inactive),15.6 µM (inactive),,0.923 µM (active),2.43 µM (inactive),2.64 µM (inactive),10.5 µM (inactive),
COc1ccc(C2S/C(=C\c3cccc(OC)c3)C(=O)N2NC(=O)Cc2ccccc2)cc1 (stereo not given),> 100 µM (inactive),> 100 µM (inactive),> 100 µM (inactive),> 100 µM (inactive),> 100 µM (inactive),> 100 µM (inactive),> 100 µM (inactive),> 100 µM (inactive),> 100 µM (inactive),> 100 µM (inactive),> 100 µM (inactive),> 100 µM (inactive),> 100 µM (inactive),> 100 µM (inactive),> 100 µM (inactive),> 100 µM (inactive),,> 100 µM (inactive)
O=[N+]([O-])c1cccc(C2=NOC(C3CCCCC3)C2)c1 (stereo not given),> 100 µM (inactive),> 100 µM (inactive),> 100 µM (inactive),> 100 µM (inactive),,> 100 µM (inactive),> 100 µM (inactive),> 100 µM (inactive),,> 100 µM (inactive),> 100 µM (inactive),> 100 µM (inactive),> 100 µM (inactive),> 100 µM (inactive),> 100 µM (inactive),,> 100 µM (inactive),
CC1=CCC(O)C=CC(C)C(O)C(C)C=C(C)C(=O)c2c(O)c(C)cc3c2C(=O)C(N)=C(NC(=O)/C=C\C=C/C=CC(C)C(O)CC1=O)C3=O (stereo not given),> 100 µM (inactive),> 100 µM (inactive),> 100 µM (inactive),> 100 µM (inactive),,> 100 µM (inactive),> 100 µM (inactive),> 100 µM (inactive),> 100 µM (inactive),> 100 µM (inactive),> 100 µM (inactive),> 100 µM (inactive),> 100 µM (inactive),67.6 µM (inactive),19.5 µM (inactive),> 100 µM (inactive),> 100 µM (inactive),
Cc1cnc2c(C)ccc([N+](=O)[O-])c2c1NCCCN(C)C,> 100 µM (inactive),> 100 µM (inactive),> 100 µM (inactive),> 100 µM (inactive),,> 100 µM (inactive),,> 100 µM (inactive),> 100 µM (inactive),,> 100 µM (inactive),> 100 µM (inactive),,> 100 µM (inactive),> 100 µM (inactive),> 100 µM (inactive),> 100 µM (inactive),> 100 µM (inactive)
O=C1C=C[C@@]23CC1C(O)C[C@H]2C=Cc1ccccc13 (stereo not given in full),> 100 µM (inactive),> 100 µM (inactive),,,,> 100 µM (inactive),> 100 µM (inactive),> 100 µM (inactive),> 100 µM (inactive),34.8 µM (inactive),> 100 µM (inactive),> 100 µM (inactive),> 100 µM (inactive),> 100 µM (inactive),> 100 µM (inactive),> 100 µM (inactive),> 100 µM (inactive),
CC(=O)c1ccc(NC(=O)C(=O)C(C(=O)c2ccc(Cl)c(Cl)c2)C2OC(=O)c3ccccc32)cc1 (stereo not given),18.9 µM (inactive),17.7 µM (inactive),10.1 µM (inactive),31.4 µM (inactive),4.54 µM (inactive),23.4 µM (inactive),16.6 µM (inactive),21.6 µM (inactive),14.6 µM (inactive),19.4 µM (inactive),26.5 µM (inactive),,,73.3 µM (inactive),9.38 µM (inactive),14.4 µM (inactive),13.7 µM (inactive),> 100 µM (inactive)
Cc1nc2c(o1)/C(=N\c1ccccc1)c1ccccc1C2=O,13.5 µM (inactive),9.64 µM (inactive),3.61 µM (inactive),35.1 µM (inactive),20.2 µM (inactive),5.97 µM (inactive),34.1 µM (inactive),10.1 µM (inactive),18.4 µM (inactive),3.37 µM (inactive),,4.86 µM (inactive),2.56 µM (inactive),10.9 µM (inactive),4.57 µM (inactive),3.32 µM (inactive),18.6 µM (inactive),
